Here are results for 41 compounds from article PMC5706701, “Development of a homogenous high-throughput assay for inositol hexakisphosphate kinase 1 activity” (PLoS ONE, 2017).

Counter-ions that a name gives are not always drawn. Like-named read-outs stand apart in the source and are kept apart here. Where a SMILES comes first, the peptide text is derived from it. The star is where a group is joined. Cbz = O=C(OCc1ccccc1)*

The target of this assay is T1, Human IP6K1 (Homo sapiens, UniProt Q92551).
T1 construct: GST (N, cleaved yes); made in house; host or cells: C43 E. coli, pGEX-6P-2
T1 sequence (Q92551 whole entry): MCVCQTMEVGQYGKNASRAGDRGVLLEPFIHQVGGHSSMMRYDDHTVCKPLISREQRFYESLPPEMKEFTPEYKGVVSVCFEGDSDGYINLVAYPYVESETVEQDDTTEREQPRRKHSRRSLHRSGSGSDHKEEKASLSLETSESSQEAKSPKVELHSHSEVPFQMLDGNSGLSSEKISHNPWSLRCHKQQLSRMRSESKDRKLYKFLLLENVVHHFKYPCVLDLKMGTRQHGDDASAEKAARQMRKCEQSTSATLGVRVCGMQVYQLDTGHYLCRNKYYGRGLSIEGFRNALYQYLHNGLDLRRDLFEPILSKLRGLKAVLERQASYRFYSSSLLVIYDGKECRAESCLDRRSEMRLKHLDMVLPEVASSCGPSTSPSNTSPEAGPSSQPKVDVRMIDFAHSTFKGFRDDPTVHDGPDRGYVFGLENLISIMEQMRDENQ
The assay is described as follows: IP6K1 high-throughput screen of the Sigma LOPAC (ADP-Glo Max, single point).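 Note: final compound concentration 10µM in 5% DMSO.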 It is filed as biochemical. On the technique in general: ADP-Glo first removes unused ATP, then detects ADP through luciferase.

[1] abbreviates: LOPAC single-point screen, ADP-Glo Max luminescence raw signal per well.
Setting [2] is: LOPAC single-point screen, Z-score relative to plate average and StDev.
[3] abbreviates: LOPAC single-point screen, ADP-Glo Max raw signal per well.
[4] abbreviates: LOPAC single-point screen, Z-score against plate average and StDev.
The mark [5] stands for this setting: LOPAC single-point screen, Z-score from plate average and StDev.
Where [6] appears, read: Sigma LOPAC single-point screen, ADP-Glo Max raw signal per well.
[7] abbreviates: Sigma LOPAC single-point screen, Z-score from plate average and StDev.
[8] abbreviates: LOPAC single-point screen, Z-score from raw signal with plate average and StDev.

For the compound `Cl.Cl.NCCC(=O)NCCc1c[nH]cn1` [Carcinine dihydrochloride], the “Raw Signal” value under setting [1] amounted to 35878. For the same compound, the Z-score under setting [2] was -3.881.

Take `Brc1c(NC2=NCCN2)ccc2nccnc12` [UK 14,304]: the “Raw Signal” value amounted to 53944 and the Z-score is recorded as -0.4041.

For `O=c1c2ccccc2[nH]c(=S)n1CCN1CCC(=C(c2ccc(F)cc2)c2ccc(F)cc2)CC1` [Diacylglycerol Kinase Inhibitor II], the “Raw Signal” value under setting [3] is on record as 55319. This compound registered a Z-score under setting [4] of 0.03086.

As to `Cc1cccc(C(=O)NCN2CCN(c3ccccc3C#N)CC2)c1.O=C(O)/C=C\C(=O)O` [PD 168,077 maleate], the “Raw Signal” value under setting [1] was 64247. This compound also returned a Z-score under setting [5] of 1.598.

For the compound `Br.CCCN(CCC)C1CCc2cccc(O)c2C1` (racemic) [(±)-8-Hydroxy-DPAT hydrobromide], the “Raw Signal” value under setting [3] is 55597. This compound also registered a Z-score under setting [4] of 0.08732.

Regarding `Cl.O=c1cc(N2CCOCC2)oc2c(-c3ccccc3)cccc12` [LY-294,002 hydrochloride], the “Raw Signal” value under setting [1] came to 50825. Besides, under setting [2], the Z-score was -0.5996.

As for `N[C@H](C(=O)O)c1cc(O)no1` (racemic) [(±)-Ibotenic acid], the “Raw Signal” value under setting [6] is given as 57640. Besides, the Z-score under setting [7] is reported as 0.5455.

As to `O=c1nc2[nH]c3ccccc3nc-2c(=O)[nH]1` [Alloxazine], the “Raw Signal” value under setting [3] is reported as 56241. The compound also came in with a Z-score under setting [8] of -0.2945.

Turning to (+)-Catechin Hydrate, the “Raw Signal” value under setting [3] is recorded as 56524. Under setting [8], the Z-score is given as -0.2447.

Regarding `CC(COc1ccc(/C=C/c2ccccc2)cc1)[N+](C)(C)C.[I-]` (stereo not shown), the “Raw Signal” value under setting [1] turned out to be 63739. Under setting [5], this compound showed a Z-score of 1.499.

In the case of `N[C@@H](C(=O)N[C@@H]1C(=O)N2C(C(=O)O)=C(Cl)CS[C@H]12)c1ccccc1` [Cefaclor], the “Raw Signal” value under setting [3] is recorded as 57158. The Z-score under setting [8] is recorded as -0.133.

As to `CCn1ccnc1CC1COc2ccccc2O1` (stereo not shown) [Imiloxan hydrochloride], the “Raw Signal” value under setting [3] came out at 52626. Under setting [8], the Z-score was -0.297.

`Cl.NOCC(=O)O.NOCC(=O)O`: the “Raw Signal” value under setting [1] came to 66377. For the same compound, the Z-score under setting [5] turned out to be 1.491.

`O=C(Nc1ccc([N+](=O)[O-])cc1Cl)c1cc(Cl)ccc1O` [Niclosamide]: the “Raw Signal” value under setting [3] turned out to be 53914. The Z-score under setting [4] is given as -0.08057.

Regarding `CN1CCN(C2=Nc3cc(Cl)ccc3Nc3ccccc32)CC1` [Clozapine], the “Raw Signal” value under setting [1] was 54825. The compound further registered a Z-score under setting [2] of -0.5439.

On to Oligomycin A, for which the “Raw Signal” value under setting [3] was determined as 55071. Under setting [4], this compound registered a Z-score of 0.1138.

`CN1C[C@H](CNC(=O)OCc2ccccc2)C[C@@H]2c3cccc4c3c(cn4C)C[C@H]21` [Metergoline]: the “Raw Signal” value under setting [1] came to 65696. This compound also showed a Z-score under setting [5] of 1.899.

For `CCCCC/C=C\C/C=C\C/C=C\C/C=C\CCCC(=O)NCC(=O)O` [N-arachidonylglycine], the “Raw Signal” value under setting [3] was determined as 55672. For the same compound, under setting [8], the Z-score is -0.3947.

For the compound `CC(=N)NCCC[C@H](N)C(=O)O.Cl`, the “Raw Signal” value under setting [3] was found to be 54044. Further, under setting [4], the Z-score is -0.05873.

Take `Br.C=CCN1CCc2c(cc(O)c(O)c2Br)[C@@H](c2ccccc2)C1` [R(+)-6-Bromo-APB hydrobromide]: under setting [3], the “Raw Signal” value came to 58651. Under setting [4], this compound returned a Z-score of 0.13.

Turning to `COc1ccccc1N1CCN(CCN(C(=O)c2ccc(F)cc2)c2ccccn2)CC1.Cl.Cl` [p-MPPF dihydrochloride], the “Raw Signal” value under setting [3] is reported as 52235. The compound also yielded a Z-score under setting [8] of -0.3627.

Regarding `CN1CCc2cc3c(cc2[C@H]1[C@@H]1OC(=O)c2c1ccc1c2OCO1)OCO3` [(+)-Bicuculline], the “Raw Signal” value under setting [1] is on record as 66353. The Z-score under setting [5] turned out to be 1.4865.

For `CN(C)CC[C@@H](c1ccc(Br)cc1)c1ccccn1` [(+)-Brompheniramine maleate], the “Raw Signal” value under setting [1] was determined as 67936. Under setting [5], the Z-score was found to be 1.765.

In the case of `NCCCP(=O)(O)O` [3-Aminopropylphosphonic acid], the “Raw Signal” value under setting [3] stood at 56234. The compound further showed a Z-score under setting [8] of -0.2957.

Take `CS(=O)(=O)O.Cn1cc(C(F)(F)F)nc1-c1ccc(OCC(O)CNCCOc2ccc(O)c(C(N)=O)c2)cc1` (stereo not shown) [CGP 20712A methanesulfonate]: the “Raw Signal” value under setting [6] was 57129. The compound further registered a Z-score under setting [7] of 0.3985.

As for `CCSC(=N)Nc1ccc(C(F)(F)F)cc1.Cl` [TFPI hydrochloride], the “Raw Signal” value under setting [3] was 53926. This compound came in with a Z-score under setting [8] of -0.4076.

Turning to `COc1ccc2c(c1)CC[C@@H]1[C@@H]2CC[C@]2(C)[C@@H](NCCCCCCN3C(=O)C=CC3=O)CC[C@@H]12` [U-73122], the “Raw Signal” value under setting [3] was found to be 55186. For the same compound, the Z-score under setting [8] is listed as -0.1628.

Regarding `CCCCOC(=O)NS(=O)(=O)c1sc(CC(C)C)cc1-c1ccc(Cn2c(CC)nc3c(C)cc(C)nc32)cc1` [L-162,313], the “Raw Signal” value under setting [3] was found to be 54291. The compound further displayed a Z-score under setting [4] of -0.01722.

Consider `CN1CCC(=C2c3ccccc3C=Cc3ccccc32)CC1` [Cyproheptadine hydrochloride], for which the “Raw Signal” value under setting [6] was 61620. Under setting [7], this compound gave a Z-score of 0.6529.

On to `N[C@@H](Cc1ccc(O)c(I)c1)C(=O)O` [3-Iodo-L-tyrosine], for which the “Raw Signal” value under setting [1] is 50230. Under setting [2], the Z-score is given as -0.6996.

For the compound `CN1C(C)(C)CCCC1(C)C` [Pempidine tartrate], the “Raw Signal” value under setting [6] amounted to 56899. Further, the Z-score under setting [7] is 0.421.

Consider `COc1cc(OC)cc(C(CNc2ncnc3c2ncn3[C@@H]2O[C@H](CO)[C@@H](O)[C@H]2O)c2ccccc2C)c1` (stereo partly shown) [DPMA], for which the “Raw Signal” value under setting [3] is 54367. The Z-score under setting [8] is reported as -0.1625.

Regarding `COc1cc2c(cc1OC)-c1c/c(=N\c3c(C)cc(C)cc3C)n(C)c(=O)n1CC2` [Trequinsin hydrochloride], the “Raw Signal” value under setting [3] is given as 54369. The Z-score under setting [8] was -0.3215.

For the compound `N#CCCN.N#CCCN.O=C(O)/C=C/C(=O)O` [3-Aminopropionitrile fumarate], under setting [1], the “Raw Signal” value turned out to be 53618. The same compound came in with a Z-score under setting [2] of -0.7565.

Regarding `NC(=Nc1ccccc1)NC(=O)c1nc(Cl)c(N)nc1N` [Phenamil methanesulfonate], the “Raw Signal” value under setting [1] worked out at 52022. Under setting [2], the Z-score is on record as -0.7775.

`CN/C(=N\c1ccc(C2=NNC(=O)CC2C)cc1)NC#N` (stereo not shown) [SKF 94836]: the “Raw Signal” value under setting [3] worked out at 55520. In addition, the Z-score under setting [8] is recorded as -0.09788.

As for `CC1(C)CCC2=C(O1)c1ccccc1C(=O)C2=O` [beta-Lapachone], under setting [3], the “Raw Signal” value was 54181. This compound came in with a Z-score under setting [4] of -0.03571.

Take `CC(C)NCC(O)COc1ccc(CC(N)=O)cc1` (racemic) [(±)-Atenolol]: the “Raw Signal” value under setting [3] worked out at 56468. Under setting [8], this compound gave a Z-score of -0.2545.

As to `O=C(CCCN1CCC2(CC1)C(=O)NCN2c1ccccc1)c1ccc(F)cc1` [Spiperone hydrochloride], the “Raw Signal” value under setting [1] is given as 52620. Moreover, under setting [2], the Z-score is given as -0.6613.

For `CC(C)CC(NC(=O)C1OC1C(=O)O)C(=O)NCCCCNC(=N)N` (stereo not shown) [E-64], under setting [6], the “Raw Signal” value came out at 60196. The compound further gave a Z-score under setting [7] of 1.021.

As to `CC(C)[C@H](NC(=O)OCc1ccccc1)C(=O)N[C@H](C=O)Cc1ccccc1` [MDL 28170] (Cbz-Val-Phe-aldehyde), the “Raw Signal” value under setting [1] stood at 65838. This compound also yielded a Z-score under setting [5] of 1.923.
